ChEMBL document CHEMBL1201862, “PubChem BioAssay data set” (2004)
Structures can show the parent of a compound that is named as a salt.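 Exposure lasted 48 hours, with cells grown in 96-well plates and compounds tested at five concentrations. At the GI50, growth is halved.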 Active and inactive are the calls of the source. Cut-off read from the data, not from the text of the source: active = GI50 up to about 1.1 µM and inactive = higher.

Assays:
Experiment in all cases: NCI-60 cell line screen, 48 h
SN12C = test system: SN12C
SK-MEL-28 = test system: SK-MEL-28
HCT-116 = test system: HCT-116
OVCAR-8 = test system: OVCAR-8
UACC-257 = test system: UACC-257
ACHN = test system: ACHN
U-251 = test system: U-251
RXF 393 = test system: RXF 393
786-0 = test system: 786-0
EKVX = test system: EKVX
KM12 = test system: KM12
DU-145 = test system: DU-145
HCT-15 = test system: HCT-15
OVCAR-5 = test system: OVCAR-5
SF-268 = test system: SF-268
NCI/ADR-RES = test system: NCI/ADR-RES
MDA-MB-435 = test system: MDA-MB-435
T47D = test system: T47D
MOLT-4 = test system: MOLT-4
HCC 2998 = test system: HCC 2998

Row | SMILES | GI50 (SN12C) | GI50 (SK-MEL-28) | GI50 (HCT-116) | GI50 (OVCAR-8) | GI50 (UACC-257) | GI50 (ACHN) | GI50 (U-251) | GI50 (RXF 393) | GI50 (786-0) | GI50 (EKVX) | GI50 (KM12) | GI50 (DU-145) | GI50 (HCT-15) | GI50 (OVCAR-5) | GI50 (SF-268) | GI50 (NCI/ADR-RES) | GI50 (MDA-MB-435) | GI50 (T47D) | GI50 (MOLT-4) | GI50 (HCC 2998)
1 | O=C1c2cccc([N+](=O)[O-])c2C(=O)N1c1ncn[nH]1 | > 100 µM (inactive) | > 100 µM (inactive) | > 100 µM (inactive) | 79.3 µM (inactive) | > 100 µM (inactive) | > 100 µM (inactive) | 38.6 µM (inactive) | 63.2 µM (inactive) | 58.1 µM (inactive) | 53 µM (inactive) | > 100 µM (inactive) | > 100 µM (inactive) | > 100 µM | > 100 µM (inactive) | 37 µM (inactive) | > 100 µM (inactive) | > 100 µM (inactive) | > 100 µM (inactive) | > 100 µM (inactive) | 
2 | Cc1nnc2ccccc2c1O | > 100 µM (inactive) | > 100 µM (inactive) | > 100 µM (inactive) | > 100 µM (inactive) | > 100 µM (inactive) | > 100 µM (inactive) | > 100 µM (inactive) | > 100 µM (inactive) | > 100 µM (inactive) | > 100 µM (inactive) | > 100 µM (inactive) | > 100 µM (inactive) | > 100 µM | > 100 µM (inactive) | > 100 µM (inactive) | > 100 µM (inactive) | > 100 µM (inactive) | > 100 µM (inactive) | 6.34 µM (inactive) | 
3 | Cc1ccc(S(=O)(=O)N/N=C2/CC3CCC4CC2CC34)cc1 (centres undefined) | > 100 µM (inactive) | > 100 µM (inactive) | > 100 µM (inactive) | > 100 µM (inactive) | > 100 µM (inactive) | > 100 µM (inactive) | > 100 µM (inactive) |  | > 100 µM (inactive) | 61.5 µM (inactive) | > 100 µM (inactive) | > 100 µM (inactive) | > 100 µM | > 100 µM (inactive) | > 100 µM (inactive) | > 100 µM (inactive) | > 100 µM (inactive) | 81.1 µM (inactive) | > 100 µM (inactive) | > 100 µM (inactive)
4 | C1CSCCSS[C@@H]2CCCCC2SC1 (some centres undefined) | > 100 µM (inactive) | > 100 µM (inactive) | 81.8 µM (inactive) | > 100 µM (inactive) | > 100 µM (inactive) |  | > 100 µM (inactive) |  | > 100 µM (inactive) | > 100 µM (inactive) | > 100 µM (inactive) | > 100 µM (inactive) | > 100 µM | > 100 µM (inactive) | > 100 µM (inactive) | > 100 µM (inactive) | > 100 µM (inactive) | > 100 µM (inactive) | > 100 µM (inactive) | > 100 µM (inactive)
5 | CN(C)c1ccc([S+]([O-])Nc2ccccc2)cc1 (centres undefined) | > 100 µM (inactive) | > 100 µM (inactive) | 26.6 µM (inactive) | 30.5 µM (inactive) | 27.3 µM (inactive) | 29.6 µM (inactive) | 19.3 µM (inactive) |  | 35.4 µM (inactive) | 32.8 µM (inactive) | 17.1 µM (inactive) | > 100 µM (inactive) | 11.6 µM | > 100 µM (inactive) | 45.6 µM (inactive) | 22.1 µM (inactive) | 21.1 µM (inactive) | 19.1 µM (inactive) | 53.8 µM (inactive) | 34.6 µM (inactive)
6 | c1ccc(-c2sc(-c3cccs3)cc2Cc2cccs2)cc1 | > 10 µM (inactive) | > 10 µM (inactive) | > 10 µM (inactive) | > 10 µM (inactive) | > 10 µM (inactive) | > 10 µM (inactive) |  | > 10 µM (inactive) | > 10 µM (inactive) | > 10 µM (inactive) | > 10 µM (inactive) | > 10 µM (inactive) | > 10 µM |  | > 10 µM (inactive) | > 10 µM (inactive) | > 10 µM (inactive) | > 10 µM (inactive) | > 10 µM (inactive) | > 10 µM (inactive)
7 | COc1ccc(P2(=S)OCCOP(=S)(c3ccc(OC)cc3)S2)cc1 (centres undefined) | 2.56 µM (inactive) | 18.4 µM (inactive) | 3.28 µM (inactive) | 3.47 µM (inactive) | 11.2 µM (inactive) | 5.98 µM (inactive) | 4.03 µM (inactive) |  | 4.79 µM (inactive) | > 21.8 µM (inactive) | 2.87 µM (inactive) | 3.74 µM (inactive) | 2.29 µM | > 100 µM (inactive) | 3.99 µM (inactive) | 4.41 µM (inactive) | 1.39 µM (inactive) | 41.8 µM (inactive) | 2.87 µM (inactive) | 2.87 µM (inactive)
8 | C[Si](C)(C)c1ccc(-c2c3ccc(-c4cc(Br)cc(Br)c4)nc3nc3nc(-c4cc(Br)cc(Br)c4)ccc23)cc1 | > 100 µM (inactive) | > 100 µM (inactive) | > 100 µM (inactive) |  | > 100 µM (inactive) | > 100 µM (inactive) | > 100 µM (inactive) |  | > 100 µM (inactive) | > 100 µM (inactive) | > 100 µM (inactive) | > 100 µM (inactive) | > 100 µM | > 100 µM (inactive) | > 100 µM (inactive) | > 100 µM (inactive) | > 100 µM (inactive) | > 100 µM (inactive) |  | > 100 µM (inactive)
9 | Cn1c(=O)c2c(nc3n2CCC(=O)N3CCCCl)n(C)c1=O | > 100 µM (inactive) | > 100 µM (inactive) | > 100 µM (inactive) | > 100 µM (inactive) | > 100 µM (inactive) | > 100 µM (inactive) | > 100 µM (inactive) |  | > 100 µM (inactive) | > 100 µM (inactive) | > 100 µM (inactive) | > 100 µM (inactive) | > 100 µM | > 100 µM (inactive) | > 100 µM (inactive) | > 100 µM (inactive) | > 100 µM (inactive) | > 100 µM (inactive) | > 100 µM (inactive) | > 100 µM (inactive)
10 | CC12CCCC(O)C1CCC1=CC3(CCC12)SCCS3 (centres undefined) | > 10 µM (inactive) | > 10 µM (inactive) |  | > 10 µM (inactive) | > 10 µM (inactive) | > 10 µM (inactive) | > 10 µM (inactive) |  | > 10 µM (inactive) |  | > 10 µM (inactive) | > 10 µM (inactive) | > 10 µM |  | > 10 µM (inactive) | > 10 µM (inactive) | > 10 µM (inactive) | > 10 µM (inactive) |  | > 10 µM (inactive)
11 | CN(C)CCOC(c1ccccc1)c1ccccc1 [DIPHENHYDRAMINE HYDROCHLORIDE] | > 100 µM (inactive) | > 100 µM (inactive) | > 100 µM (inactive) | > 100 µM (inactive) | > 100 µM (inactive) | > 100 µM (inactive) |  |  | > 100 µM (inactive) | > 100 µM (inactive) | > 100 µM (inactive) | > 100 µM (inactive) | > 100 µM | > 100 µM (inactive) |  | > 100 µM (inactive) | > 100 µM (inactive) | > 100 µM (inactive) | > 100 µM (inactive) | > 100 µM (inactive)
